# Columns and labels:
# [1] = Comparative experiment of manufacturing method: solubility of cilostazol in HP-β-CD, dissolving method (1) vs (2); type: physicochemical
# Method: To cilostazol suspension (0.5%, suspended in physiological saline) was added HP-β-CD powder so that the final concentration of the HP-β-CD should be 5-20%, and the mixture was completely dissolved (the procedure is termed as “dissolving method (1)”). On the contrary, to HP-β-CD solution (5-20%, dissolved in physiological saline) was added cilostazol powder (final concentration: 0.5%), and the mixture was completely dissolved (the procedure is termed as “dissolving method (2)”). Both the above solutions were stirred at 25° C. for 24 hours under the shade, then filtrated with membrane filter (pore size: 0.2 μm), and compared about the solubility of the solutions. […] Actually, it needed 10 minutes' stirring for the solution derived from dissolving method (1) to reach the state of the dissolution curve shown in FIG. 1. […] (The above concentrations are shown as weight/volume %.)
# [2] = Dissolution experiment of cilostazol nano (nano-CLZ) in HP-β-CD, dissolving method (1) vs (2); type: physicochemical
# Method: CLZ and an excipient were mixed in a ratio of about 80%:20% to give a nano-CLZ powder. To a nano-CLZ suspension (0.5% CLZ suspension: which was prepared by suspending 120 mg of the nano-CLZ powder in 20 mL of purified water), HP-β-CD powder was added and the mixture was dissolved so that the final concentration of HP-β-CD should be 5-20% (dissolving method (1)); while 120 mg of the nano-CLZ powder was added to a HP-β-CD solution (which was prepared by dissolving HP-β-CD in purified water so that the final concentration of HP-β-CD should be 5-20%), and the mixture was dissolved (the final concentration of CLZ is 0.5%) (dissolving method (2)). Both the above solutions were stirred at 25° C. for 24 hours under the shade, then filtrated with membrane filter (pore size: 0.2 μm), and compared about the solubility of the solutions.
# Actually, it needed 30 minutes' stirring for the solution derived from dissolving method (1) to reach the state of the dissolution curve shown in FIG. 2. […] (The above concentrations are shown as weight/volume %.)
smiles,measurement,setting,value
"O=C1CCc2cc(OCCCCc3nnnn3C3CCCCC3)ccc2N1 [cilostazol, 6-[4-(1-cyclohexyl-1H-tetrazol-5-yl)butoxy]-3,4-dihydrocarbostyril]","solubility of cilostazol, dissolving method (1) compared with dissolving method (2)","[1]; 0.5% cilostazol, 5-20% HP-β-CD in physiological saline, stirred 25° C. 24 hours under the shade, 0.2 μm filtrate, FIG. 1",tended to increase more
same,stirring needed to reach the state of the dissolution curve,"[1]; dissolving method (1): HP-β-CD powder added to cilostazol suspension, FIG. 1",10 min
same,solubility after 10 minutes stirring relative to the solubility shown in FIG. 1,[1]; dissolving method (2): cilostazol powder added to HP-β-CD solution,one fifth or less
same,"solubility of cilostazol, dissolving method (1) compared with dissolving method (2)","[2]; nano-CLZ powder, 0.5% CLZ, 5-20% HP-β-CD in purified water, stirred 25° C. 24 hours under the shade, 0.2 μm filtrate, FIG. 2",tended to increase more
same,stirring needed to reach the state of the dissolution curve,"[2]; nano-CLZ, dissolving method (1), FIG. 2",30 min
same,solubility after 30 minutes stirring relative to the solubility shown in FIG. 2,"[2]; nano-CLZ, dissolving method (2)",half or less

# Source: patent US8686001B2, “Medicament for treating glaucoma comprising as an active ingredient cyclodextrin-clathrate compound of cilostazol” (Otsuka Pharmaceutical Co., Ltd., priority 2007, dated 2014)
